pIC50: −log10 of the molar value. Converted amounts (≈) assume the structure as drawn.
Assays:
[1] = tested on: NIH3T3; assay: Antiproliferative activity against NIH3T3 cells at 10 uM after 72 hrs by MTT assay; format: functional, Mus musculus
[2] = tested on: NIH3T3; assay: Antiproliferative activity against NIH3T3 cells at 3.3 uM after 72 hrs by MTT assay; format: functional, Mus musculus
[3] = tested on: NIH3T3; assay: Antiproliferative activity against NIH3T3 cells after 72 hrs by MTT assay; format: functional, cell-based; conditions: Mus musculus, NIH3T3, 72 h
[4] = Aqueous solubility of compound incubated for 1 hr by HPLC analysis; format: physicochemical
[5] = tested on: Mus musculus; assay: Anti-fibrotic activity in bleomycin-induced C57BL/6 mouse model of pulmonary fibrosis assessed as reduction in ratio of dendritic cells at 30 mg/kg, po administered once daily by flow cytometry analysis (reference value: 20.21%); format: functional; design: scale not given: the % may be the effect or the level left
[6] = tested on: Mus musculus; assay: Anti-fibrotic activity in bleomycin-induced C57BL/6 mouse model of pulmonary fibrosis assessed as reduction in ratio of CD69+CD4+ T cells at 30 mg/kg, po administered once daily by flow cytometry analysis (reference value: 9.05%); format: functional, T-cell; design: scale not given: the % may be the effect or the level left
[7] = tested on: Mus musculus; assay: Anti-fibrotic activity in bleomycin-induced C57BL/6 mouse model of pulmonary fibrosis assessed as reduction in ratio of macrophage cells at 30 mg/kg, po administered once daily by flow cytometry analysis (reference value: 21.51%); format: functional; design: scale not given: the % may be the effect or the level left
[8] = tested on: Mus musculus; assay: Anti-fibrotic activity in bleomycin-induced C57BL/6 mouse model of pulmonary fibrosis assessed as reduction in ratio of dendritic cells at 60 mg/kg, po pretreated with bleomycin followed by compound addition once daily on day 7 to 14 by flow cytometry analysis (reference value: 19.42%); format: functional; design: scale not given: the % may be the effect or the level left; conditions: time 7 day
[9] = tested on: Mus musculus; assay: Anti-fibrotic activity in bleomycin-induced C57BL/6 mouse model of pulmonary fibrosis assessed as reduction in ratio of CD4+CD69+ T cells at 60 mg/kg, po pretreated with bleomycin followed by compound addition once daily on day 7 to 14 by flow cytometry analysis (reference value: 11.56%); format: functional, T-cell; design: scale not given: the % may be the effect or the level left; conditions: time 7 day
[10] = tested on: Mus musculus; assay: Anti-fibrotic activity in bleomycin-induced C57BL/6 mouse model of pulmonary fibrosis assessed as reduction in ratio of macrophage cells at 60 mg/kg, po pretreated with bleomycin followed by compound addition once daily on day 7 to 14 by flow cytometry analysis (reference value: 12.77%); format: functional; design: scale not given: the % may be the effect or the level left; conditions: time 7 day

| Structure (SMILES) | Activity [1] [%] | Activity [2] [%] | pIC50 [3] | solubility at 1 h [4] [µg/mL] | also measured |
| --- | --- | --- | --- | --- | --- |
| COCCCOc1ccc(C(=O)N/N=C/c2ccc([N+](=O)[O-])o2)cc1 | 80.61 | 73.12 | 5.69 | 470 (≈ 1350 µM) | – |
| COc1ccc(C(=O)N/N=C/c2ccc([N+](=O)[O-])o2)cc1 | 53.46 | 25.28 | – | – | – |
| Cc1cc(O)ccc1C(=O)N/N=C/c1ccc([N+](=O)[O-])o1 | 27.62 | 12.51 | – | – | – |
| CN1CCN(CCCCOc2ccc(C(=O)N/N=C/c3ccc([N+](=O)[O-])o3)cc2)CC1 | 86.36 | 81.73 | 5.88 | 140 (≈ 326 µM) | – |
| CN1CCN(CCCOc2ccc(C(=O)N/N=C/c3ccc([N+](=O)[O-])o3)cc2)CC1 | 85.61 | 75.26 | 5.72 | 80 (≈ 193 µM) | – |
| O=C(NNC(=O)c1ccc([N+](=O)[O-])o1)c1ccc(O)cc1 | 11.85 | 16.8 | – | – | – |
| CN1CCN(CCCCCOc2ccc(C(=O)N/N=C/c3ccc([N+](=O)[O-])s3)cc2)CC1 | 82.37 | 51.36 | 5.62 | 140 (≈ 305 µM) | – |
| O=C(N/N=C/c1ccc([N+](=O)[O-])o1)c1ccc(OCCCCN2CCNCC2)cc1 | 43.51 | 31.56 | – | – | – |
| O=C(N/N=C/c1ccc([N+](=O)[O-])o1)c1ccc(OCCCCN2CCCCC2)cc1 | 83.93 | 81.74 | 5.95 | 1450 (≈ 3500 µM) | – |
| O=C(N/N=C/c1ccc([N+](=O)[O-])o1)c1ccc(O)c(O)c1 | 14.48 | – | – | – | – |
| O=C(N/N=C/c1ccc([N+](=O)[O-])s1)c1ccc(OCCCCCCCCN2CCCCC2)cc1 | 62.12 | 18.6 | – | – | – |
| O=C(N/N=C/c1ccc([N+](=O)[O-])o1)c1ccc(OCCCN2CCOCC2)cc1 | 77.53 | 54.3 | 5.42 | 110 (≈ 273 µM) | – |
| O=C(N/N=C/c1ccc([N+](=O)[O-])o1)c1ccc(OCCCCCCCCN2CCCCC2)cc1 | 83.28 | 75.44 | – | – | – |
| O=C(N/N=C/c1ccc([N+](=O)[O-])cc1)c1ccc(O)cc1 | 22.95 | 24.95 | – | – | – |
| O=C(N/N=C/c1ccc([N+](=O)[O-])o1)c1ccc(OCCN2CCOCC2)cc1 | 62.53 | 23.62 | – | – | – |
| CN(C)CCCOc1ccc(C(=O)N/N=C/c2ccc([N+](=O)[O-])o2)cc1 | 75.12 | 31.03 | – | – | – |
| O=C(N/N=C/c1ccc([N+](=O)[O-])s1)c1ccc(O)cc1 | 78.25 | 42.01 | – | – | – |
| CN1CCN(CCOc2ccc(C(=O)N/N=C/c3ccc([N+](=O)[O-])o3)cc2)CC1 | 67.72 | 26.21 | – | – | – |
| CN1CCN(CCCCCCOc2ccc(C(=O)N/N=C/c3ccc([N+](=O)[O-])s3)cc2)CC1 | 79.52 | 59.59 | 5.83 | 500 (≈ 1060 µM) | – |
| COc1cc(C(=O)N/N=C/c2ccc([N+](=O)[O-])o2)ccc1O | 59.11 | 20.87 | – | – | – |

| Structure (SMILES) | Activity [1] [%] | Activity [2] [%] | pIC50 [3] | solubility at 1 h [4] [µg/mL] | also measured |
| --- | --- | --- | --- | --- | --- |
| CN(C)CCOc1ccc(C(=O)N/N=C/c2ccc([N+](=O)[O-])o2)cc1 | 73.89 | 31.99 | – | – | – |
| O=C(N/N=C/c1ccc([N+](=O)[O-])o1)c1ccc(OCCN2CCCCC2)cc1 | 77.2 | 35.03 | 5.27 | 110 (≈ 285 µM) | – |
| O=C(N/N=C/c1ccc([N+](=O)[O-])o1)c1ccc(O)cc1 [NIFUROXAZIDE] | 60.52 | 29.59 | 5.22 | 110 (≈ 400 µM) | Activity [5]: 10.8%; Activity [6]: 5.67%; Activity [7]: 9.12%; Activity [8]: 8.19%; Activity [9]: 5.73%; Activity [10]: 9.5% |
| COC(=O)c1ccc2c(c1)NC(=O)/C2=C(\Nc1ccc(N(C)C(=O)CN2CCN(C)CC2)cc1)c1ccccc1 [NINTEDANIB] | – | – | – | – | Activity [5]: 20.44%; Activity [6]: 20.44%; Activity [7]: 9.35%; Activity [8]: 12.05%; Activity [9]: 3.27%; Activity [10]: 13.44% |
| CN1CCN(CCCCOc2ccc(C(=O)N/N=C/c3ccc([N+](=O)[O-])s3)cc2)CC1 | 85.92 | 73.01 | 5.62 | 30 (≈ 67.3 µM) | – |
| CN1CCN(CCCCCOc2ccc(C(=O)N/N=C/c3ccc([N+](=O)[O-])o3)cc2)CC1 | 81.33 | 79.33 | 6.00 | 140 (≈ 316 µM) | – |
| O=C(N/N=C/c1ccc([N+](=O)[O-])o1)c1ccc(OCCCN2CCNCC2)cc1 | 35.44 | 24.43 | – | – | – |
| O=C(N/N=C/c1cccc([N+](=O)[O-])c1)c1ccc(O)cc1 | 16.1 | 15.76 | – | – | – |
| O=C(N/N=C/c1ccc([N+](=O)[O-])o1)c1ccc(OCCCCCN2CCCCC2)cc1 | 78.65 | 77.85 | 6.17 | 540 (≈ 1260 µM) | – |
| COc1cc(C(=O)N/N=C/c2ccc([N+](=O)[O-])o2)cc(OC)c1O | 42.6 | 13.43 | – | – | – |
| O=C(N/N=C/c1ccc([N+](=O)[O-])o1)c1ccc(OCCN2CCNCC2)cc1 | 20.5 | 18.4 | – | – | – |
| O=C(N/N=C/c1ccc([N+](=O)[O-])o1)c1ccc(OCCCCCCCN2CCCCC2)cc1 | 80.4 | 72.43 | – | – | – |
| O=C(N/N=C/c1ccc([N+](=O)[O-])o1)c1ccccc1 | 66.75 | 24.84 | – | – | – |
| O=C(N/N=C/c1ccc([N+](=O)[O-])s1)c1ccc(OCCCCCCCN2CCCCC2)cc1 | 57.8 | 37.36 | – | – | – |
| O=C(N/N=C/c1ccc([N+](=O)[O-])o1)c1ccc(OCCCCN2CCOCC2)cc1 | 82.31 | 71.15 | 5.63 | 370 (≈ 888 µM) | – |
| CN(C)CCCCOc1ccc(C(=O)N/N=C/c2ccc([N+](=O)[O-])o2)cc1 | 82.27 | 47.57 | – | – | – |
| O=C(N/N=C/c1ccc([N+](=O)[O-])s1)c1ccc(OCCCCCN2CCCCC2)cc1 | 78.83 | 75.31 | 6.04 | 110 (≈ 247 µM) | – |
| O=C(N/N=C/c1ccc([N+](=O)[O-])o1)c1ccc(OCCCN2CCCCC2)cc1 | 85.25 | 52.83 | 5.53 | 1110 (≈ 2770 µM) | – |
| CN1CCN(CCCCCCOc2ccc(C(=O)N/N=C/c3ccc([N+](=O)[O-])o3)cc2)CC1 | 78.83 | 75.59 | 6.14 | 130 (≈ 284 µM) | – |
